The text below walks through data of US7696231B2, “Oxindole hydrazide modulators of protein tyrosine phosphatases (PTPs)” (Laboratoires Serono SA, priority 2001, dated 2010).

In one assay the target is T1, PTP1B (Homo sapiens, UniProt P18031).
T1 construct: using the catalytic core of a human recombinant PTP, as an enzyme; made in house
T1 sequence (P18031 3-277 limits assumed): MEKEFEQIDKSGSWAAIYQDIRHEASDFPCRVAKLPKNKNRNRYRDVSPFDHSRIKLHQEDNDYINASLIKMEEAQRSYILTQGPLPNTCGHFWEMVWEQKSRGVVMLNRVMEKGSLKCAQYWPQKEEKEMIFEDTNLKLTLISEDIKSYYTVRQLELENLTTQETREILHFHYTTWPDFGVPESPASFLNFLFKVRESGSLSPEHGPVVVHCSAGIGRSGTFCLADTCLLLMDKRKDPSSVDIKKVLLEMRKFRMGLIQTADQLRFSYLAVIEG
As to the kind of experiment: PTP Enzyme Assay (PTP1B). It counts as biochemical. The following applies: catalytic core of human recombinant PTP, DiFMUP substrate at Km, 30 minutes at room temperature; read-out: inhibition (IC50) with regard to PTP1B. The text has this: (§1) The PTP Enzyme Assay aims at determining the extent of inhibition of the examined PTP (e.g. PTP1B, TC-PTP, PTP-β, DEP-1, LAR, SHP-1, SHP-2, GLEPP-1, PTP-κ, PTP-μ, VHR, hVH5) in the presence of a test compound. The inhibition is illustrated by IC50 values which denote the concentration necessary to achieve an inhibition of 50% of the given PTP.
(§2) The cloning and expression of the catalytic domain of PTPs (e.g. PTP1B, TC-PTP, PTP-β, DEP-1, LAR, SHP-1, SHP-2, GLEPP-1, PTP-κ, PTP-μ, VHR, hVH5) maybe performed as described in J. Biol. Chem. 2000, 275(13), pp 9792-9796.
(§3) Assays were performed in a 96 well plate format, using the catalytic core of a human recombinant PTP, as an enzyme and 6,8-DiFluoro-4-MethylUmbelliferyl Phosphate (DiFMUP, Molecular Probes, D-6567) as a substrate at the Km value which was predetermined for each enzyme. Compounds to be tested were dissolved in 100% DMSO at a concentration of 2 mM. […] The reaction ran for 30 minutes at room temperature before reading the fluorescence intensity on a Perkin-Elmer Victor 2 spectrofluorimeter (excitation at 355 nm, emission at 460 nm, for 0.1 s). The percentage of inhibition relative to the fluorescence observed in the presence of solvent (5% DMSO) alone was determined. The IC50 values for inhibition were determined in triplicates on at least 3 separate occasions.

The target in a further assay is T2, GLEPP-1 (Homo sapiens, UniProt Q16827).
T2 construct: using the catalytic core of a human recombinant PTP, as an enzyme; made in house
T2 sequence (Q16827 938-1195 limits assumed): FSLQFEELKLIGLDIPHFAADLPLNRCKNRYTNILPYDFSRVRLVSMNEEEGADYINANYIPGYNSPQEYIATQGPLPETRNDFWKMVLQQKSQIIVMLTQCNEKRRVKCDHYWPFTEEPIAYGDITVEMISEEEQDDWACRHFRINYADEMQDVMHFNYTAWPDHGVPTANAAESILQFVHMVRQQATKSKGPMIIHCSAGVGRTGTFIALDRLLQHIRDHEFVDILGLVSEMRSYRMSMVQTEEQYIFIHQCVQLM
The assay is described as follows: PTP Enzyme Assay (GLEPP-1). It counts as biochemical. The following applies: catalytic core of human recombinant PTP, DiFMUP substrate at Km, 30 minutes at room temperature; read-out: inhibition (IC50) with regard to GLEPP-1.
Excerpt: as §1, §2, §3

Assay [1] relates to db/db mice. As to the kind of experiment: In vivo assay in db/db mice, fasted animals (postprandial glycemia). Conditions: db/db mice fasted 20 hours, 100 mg/kg per os, blood glucose before and 4 hrs after drug administration. As for the experimental part:
(§4) The following assay aims at determining the anti-diabetic effect of the test compounds of formula (I), in vivo in db/db mice using either fasted (to determine the postprandial glycemia right after a predetermined diet), or fed animals, to determine glycemia after a predetermined period of treatment.
(§5) 2 groups of db/db mice, 6 animals each, were formed, in the first one mice were fasted during 20 hours, the second one comprises fed (ad libitum) mice.
Group 1: The fasted animals (6) were administered (per os) a dose of 100 mg/kg of the test compound according to formula (I).
After oral administration with compounds of formula (I), they had access to commercial food (ad libitum). Blood glucose (postprandial glycemia) was determined before and 4 hrs after drug administration.

Assay [2] relates to db/db mice. As to the kind of experiment: In vivo assay in db/db mice, fed animals (repeated oral administration). Conditions: 5×50 mg/kg per os once daily during 5 days, blood glucose before and 16 hrs after the last drug administration. On the procedure: as §4, §5
Group 2: The fed animals (6) were administered (per os) a dose of 5×50 mg/kg of the test compound according to formula (I).
Mice were orally treated once daily during 5 days with compounds of formula (I). Blood glucose was determined before drug administration and 16 hrs after the last drug administration.

Each structure is given as a SMILES string.

By IC50 is commonly meant the midpoint of a concentration-inhibition curve. Turning to `O=C(CCc1ccccc1)Nc1ccc(C(=O)NN=C2C(=O)Nc3ccc(I)cc32)cc1` [Example 1, N-(4-{[2-(5-Iodo-2-oxo-1,2-dihydro-3H-indol-3-ylidene)hydrazino]carbonyl}phenyl)-3-phenylpropanamide], the IC50 was 340 nM at PTP1B and roughly 496 nM on GLEPP-1. Besides, in the assay on db/db mice [1], the “reduction of blood glucose level induced by food intake (postprandial glycemia)” value (“reduction of blood glucose level induced” below) was 30%. In addition, the “reduction of the blood glucose level” value in the assay on db/db mice [2] is reported as 22%. With `O=C(CCc1cccc(O)c1)Nc1ccc(C(=O)NN=C2C(=O)Nc3ccc(I)cc32)cc1` [Example 70, 3-(3-Hydroxyphenyl)-N-(4-{[2-(5-iodo-2-oxo-1,2-dihydro-3H-indol-3-ylidene)hydrazino]carbonyl}phenyl)propanamide], the IC50 at PTP1B is 770 nM. As for `O=C1Nc2ccc(I)cc2C1=NNC(=O)c1cccc(Oc2ccccc2)c1` [Example 26, N′-(5-Iodo-2-oxo-1,2-dihydro-3H-indol-3-ylidene)-3-phenoxybenzohydrazide], in the assay with db/db mice [2], the “reduction of the blood glucose level” value came to 17%. `O=C(COc1ccc([N+](=O)[O-])cc1)NN=C1C(=O)Nc2ccc(I)cc21` [Example 18, N′-(5-Iodo-2-oxo-1,2 dihydro-3H-indol-3-ylidene)-2-(4-nitrophenoxy)acetohydrazide]: in the assay with db/db mice [1], the “reduction of blood glucose level induced” value is reported as 34%. `O=C1Nc2ccc(I)cc2C1=NNC(=O)c1ccc(NC(=O)c2ccccc2)cc1` [Example 50, N-(4-{[2-(5-Iodo-2-oxo-1,2-dihydro-3H-indol-3-ylidene)hydrazino]-carbonyl}phenyl)benzamide]: in the assay on db/db mice [1], the “reduction of blood glucose level induced” value is recorded as 30%. As for `COC(=O)c1ccc(OCC(=O)NN=C2C(=O)Nc3ccc(I)cc32)cc1` [Example 23, Methyl 4-{2-[2-(5-iodo-2-oxo-1,2-dihydro-3H-indol-3-ylidene)hydrazino]-2-oxoethoxy}benzoate], the “reduction of the blood glucose level” value in the assay with db/db mice [2] came out at 30%.
